According to PubChem BioAssay AID248 (DTP/NCI, 2004):
Where “and” joins values, the source holds several entries; their conditions need not be identical. Identical values can stand only once. Toxic doses and inconclusive results are not listed. Rule as the data show it: active = T/C of 150% or more; inactive = T/C below 125%.

Tested on: L1210 leukemia ip in BDF1 mice, survival T/C
Assay: NCI In Vivo Anticancer Drug Screen. Data for tumor model L1210 Leukemia (intraperitoneal) in B6D2F1 (BDF1) mice
Settings: endpoint: mean survival time, higher = longer survival
Outline: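 Each compound was tested against a transplantable tumor grown in mice. The endpoint was survival, with treated animals benchmarked against vehicle controls as a simple ratio.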

[1] = dose: 100.0 mg/kg/injection, schedule: Q04DX003 (ip), vehicle: Klucel (hydroxypropylcellulose) (HPC)
[2] = dose: 200.0 mg/kg/injection, schedule: Q04DX003 (ip), vehicle: Klucel (hydroxypropylcellulose) (HPC)
[3] = dose: 100.0 mg/kg/injection, schedule: Q01DX009 (ip), vehicle: Klucel (hydroxypropylcellulose) (HPC)
[4] = dose: 200.0 mg/kg/injection, schedule: Q01DX009 (ip), vehicle: Klucel (hydroxypropylcellulose) (HPC)

Measured: T/C

NC(=S)N/N=C\c1c[nH]c2cc(C(F)(F)F)ccc12
inactive: dose: 5.0 mg/kg/injection, schedule: Q01DX001 (ip), vehicle: carboxymethylcellulose (CMC) 101 % of control | dose: 10.0 mg/kg/injection, schedule: Q01DX001 (ip), vehicle: carboxymethylcellulose (CMC) 95 % of control | dose: 20.0 mg/kg/injection, schedule: Q01DX001 (ip), vehicle: carboxymethylcellulose (CMC) 101 % of control | dose: 40.0 mg/kg/injection, schedule: Q01DX001 (ip), vehicle: carboxymethylcellulose (CMC) 101 % of control

C[N+]1(C)Cc2ccccc2-c2ccccc2C1
inactive: dose: 12.0 mg/kg/injection, schedule: Q04DX003 (ip), vehicle: saline 121 % of control | dose: 12.5 mg/kg/injection, schedule: Q01DX009 (ip), vehicle: saline 103 % of control | dose: 25.0 mg/kg/injection, schedule: Q01DX009 (ip), vehicle: saline 111 % of control | dose: 25.0 mg/kg/injection, schedule: Q04DX003 (ip), vehicle: saline 94 % of control | dose: 50.0 mg/kg/injection, schedule: Q04DX003 (ip), vehicle: saline 106 % of control

C=CCn1c(-c2cccs2)nc2c(Cl)ncnc21
inactive: dose: 24.0 mg/kg/injection, schedule: Q01DX009 (ip), vehicle: steriod suspending solution 88 % of control | dose: 39.0 mg/kg/injection, schedule: Q01DX009 (ip), vehicle: steriod suspending solution 90 % of control

O=C(NCCCl)NN1CCCCC1
inactive: dose: 50.0 mg/kg/injection, schedule: Q04DX003 (ip), vehicle: Klucel (hydroxypropylcellulose) (HPC) 113 % of control | [1] 113 % of control | [2] 113 % of control

c1ccc(N=Nc2ccc(C3=NCCO3)cc2)cc1
inactive: [3] 91 % of control | dose: 100.0 mg/kg/injection, schedule: Q04DX003 (ip), vehicle: saline 95 % of control | [4] 88 % of control | dose: 200.0 mg/kg/injection, schedule: Q04DX003 (ip), vehicle: saline 101 % of control | dose: 400.0 mg/kg/injection, schedule: Q01DX009 (ip), vehicle: Klucel (hydroxypropylcellulose) (HPC) 87 % of control | dose: 400.0 mg/kg/injection, schedule: Q04DX003 (ip), vehicle: saline 94 % of control

COc1cc(/C=C\C(=O)c2cccc([N+](=O)[O-])c2)cc(OC)c1OC
inactive: dose: 100.0 mg/kg/injection, schedule: Q04DX002 (ip), vehicle: Klucel (hydroxypropylcellulose) (HPC) 96 % of control | dose: 200.0 mg/kg/injection, schedule: Q04DX002 (ip), vehicle: Klucel (hydroxypropylcellulose) (HPC) 89 % of control | dose: 400.0 mg/kg/injection, schedule: Q04DX002 (ip), vehicle: Klucel (hydroxypropylcellulose) (HPC) 100 % of control

CCCC1=NNc2n[nH]c(=S)n2N1
inactive: dose: 12.5 mg/kg/injection, schedule: Q01DX009 (ip), vehicle: Klucel (hydroxypropylcellulose) (HPC) 93 % of control | dose: 25.0 mg/kg/injection, schedule: Q01DX009 (ip), vehicle: Klucel (hydroxypropylcellulose) (HPC) 90 % of control | dose: 50.0 mg/kg/injection, schedule: Q01DX009 (ip), vehicle: Klucel (hydroxypropylcellulose) (HPC) 98 % of control | [1] 100 % of control | [2] 96 % of control

Nc1ccc(C(=O)CC(O)(C(F)(F)F)C(F)(F)F)cc1
inactive: dose: 25.0 mg/kg/injection, schedule: Q01DX009 (ip), vehicle: saline with Tween-80 92 % of control | dose: 50.0 mg/kg/injection, schedule: Q01DX009 (ip), vehicle: saline with Tween-80 94 % of control | dose: 100.0 mg/kg/injection, schedule: Q01DX009 (ip), vehicle: saline with Tween-80 100 % of control and 92 % of control | dose: 200.0 mg/kg/injection, schedule: Q01DX009 (ip), vehicle: saline with Tween-80 95 % of control

CCOC(=O)c1cc(=O)n(-c2ccc([N+](=O)[O-])cc2)n1C
inactive: dose: 100.0 mg/kg/injection, schedule: Q04DX003 (ip), vehicle: saline with Tween-80 94 % of control | dose: 200.0 mg/kg/injection, schedule: Q04DX003 (ip), vehicle: saline with Tween-80 92 % of control | dose: 400.0 mg/kg/injection, schedule: Q04DX003 (ip), vehicle: saline with Tween-80 94 % of control

ClCC(Cl)C1CCC(Cl)C(Cl)C1 (stereo not drawn)
inactive: dose: 50.0 mg/kg/injection, schedule: Q01DX009 (ip), vehicle: other 95 % of control | dose: 100.0 mg/kg/injection, schedule: Q01DX009 (ip), vehicle: other 90 % of control | dose: 200.0 mg/kg/injection, schedule: Q01DX009 (ip), vehicle: other 90 % of control

COc1ccc(Cl)cc1NC(=O)Nc1nccs1
inactive: [3] 98 % of control | [1] 101 % of control | [4] 92 % of control | [2] 97 % of control | dose: 400.0 mg/kg/injection, schedule: Q04DX003 (ip), vehicle: Klucel (hydroxypropylcellulose) (HPC) 95 % of control
